# According to patent US5342845A, “Indole derivatives and drugs” (priority 1990, dated 1994):
# Structures can show the parent of a compound that is named as a salt.
# Key:
# mice = assay: Acute toxicity; format: in vivo, male mice; details: 48 hours
# Excerpt: Six-week-old male mice were used.
# [1] = tested on: Bezold-Jarisch reflex (serotonin-induced decrease in heart rate); assay: Inhibition of serotonin-induced Bezold-Jarisch reflex; format: in vivo, male rats; details: Rattus norvegicus, iv, 5 min; i.v. 5 min before 0.1 mg/kg i.v. serotonin; dose inhibiting response by 50%
# Excerpt: 1. Inhibition of Bezold-Jarisch reflex
# The effect of the test compound on the serotonin-induced decrease in heart rate (Bezold-Jarisch reflex) was investigated in male rats, 6-8 weeks of age, with reference to the method of Richardson, et al. (Richardson, B. P., Engel, G., Donatsch, P. and Stadle, P. A.: Identification of serotonin-receptor subtypes and their specific blockade by a new class of drugs; Nature 316, 126-131 (1985)). With the animal immobilized in dorsal position under urethane anesthesia, 0.1 mg/kg of serotonin was administered intravenously before and 5 min after intravenous administration of the test compound and changes in heart rate were recorded. […] The ED50 value was calculated by the least square method.
# [2] = tested on: cisplatin-induced vomiting; assay: Inhibition of cisplatin-induced vomiting; format: in vivo, beagle dogs; details: for a/b (Number of animals which vomited/number of animals used): 5 min before cisplatin 2 mg/kg i.v., 6 h observation; for Vomiting frequency: control 12.2 ± 0.8; for Latency to vomiting: control 118.9 ± 5.6
# Description: 2. Inhibition of cisplatin-induced vomiting
# The experiment was performed with reference to the method of Cohen et al. (Cohen, M. L., Bloomquist, W., Gidda, J. S. and Lacefie, W: Comparison of the 5-HT3 receptor antagonist properties of ICS-205-930, GR38032F and Zacopride; J. Pharmacol. Exp. Ther. 248, 197-201 (1989)). In this experiment, beagle dogs of either sex, weighing 8-15 kg, were used. […] The test compounds were administered intravenously 5 minutes before the administration of cisplatin.
# [3] = tested on: scopolamine-induced deficits of learning and memory; assay: Ameliorative effect on scopolamine-induced deficits of learning and memory (step through-type passive avoidance); format: in vivo, rats
# Description: 3. Ameliorative effect on scopolamine-induced deficits of learning and memory
# The experiment was performed in groups of 10 rats. In the intraperitoneal administration study, the test compound was dissolved in physiological saline and administered, and 15 minutes later 0.3 mg/kg of scopolamine was administered intraperitoneally. In the oral administration study, the test compound was suspended in 0.5% methylcellulose (MC) solution and administered and 30 minutes later 0.3 mg/kg of scopolamine was administered intraperitoneally. Thirty minutes after scopolamine administration, training sessions for a step through-type passive avoidance learning task was carried out and 24 hours after this training, trial sessions were started.
# The latency to step-through in the trial sessions was determined up to a maximum of 300 seconds and the result was regarded as a learning result. For the test of significant differences from the control group, the Kruscall-Wallis test and the Fisher test were used. The control group received a physiological saline or MC solution.
# muscarine M1 receptors = molecular target: T1, muscarine M1 receptors (Rattus norvegicus, UniProt P08482); assay: Muscarine M1 receptor binding ([^3 H]pirenzepine displacement); details: 1 nM [^3 H]pirenzepine, rat brain membranes, pH 7.4, 25° C., 60 min
# T1 construct: receptor membrane prepared from the rat brain; from tissue; host or cells: rat brain (receptor membrane)
# T1 sequence (P08482 1-460): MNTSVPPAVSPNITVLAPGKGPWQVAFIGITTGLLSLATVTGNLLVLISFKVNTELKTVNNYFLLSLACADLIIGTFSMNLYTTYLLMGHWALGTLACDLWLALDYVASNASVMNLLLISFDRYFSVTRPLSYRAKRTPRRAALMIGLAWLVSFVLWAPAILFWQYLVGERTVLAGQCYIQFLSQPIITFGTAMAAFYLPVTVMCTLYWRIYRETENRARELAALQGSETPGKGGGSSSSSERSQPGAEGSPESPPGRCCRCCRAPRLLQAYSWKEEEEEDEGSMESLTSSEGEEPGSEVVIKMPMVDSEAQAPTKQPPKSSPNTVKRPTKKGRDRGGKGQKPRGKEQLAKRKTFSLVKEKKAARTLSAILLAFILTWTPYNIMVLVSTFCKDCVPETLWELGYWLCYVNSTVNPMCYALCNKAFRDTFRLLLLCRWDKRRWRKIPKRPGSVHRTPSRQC
# Description: 4. Effect on muscarine M1 receptors
# The muscarine M1 receptor binding assay was carried out according to the method of Watson and Yamamura [Life Sci. 32; 3001-3011 (1983)]. Thus, receptor membrane prepared from the rat brain were incubated with 1 nM [^3 H]pirenzepine in 10 mM Na/K phosphate buffer (pH 7.4) at 25° C. for 60 minutes. As a displacer, 1μM atropine was used.
# [4] = tested on: emesis associated with the administration of anticancer drugs; details: background art; cited from earlier work
# [5] = oral, 0.03 μg/kg, control 110.1 ± 41.6 (Example 11), 111.9 ± 41.4 (Example 12)
# [6] = oral, 0.1 μg/kg, control 110.1 ± 41.6 (Example 11), 111.9 ± 41.4 (Example 12)
# [7] = oral, 0.3 μg/kg, control 110.1 ± 41.6 (Example 11), 111.9 ± 41.4 (Example 12)
# [8] = oral, 1 μg/kg, control 110.1 ± 41.6 (Example 11), 111.9 ± 41.4 (Example 12)
structure (smiles),measurement,setting,value
"Cn1c(-c2ccc(Cl)cc2)c(C(=O)NC2CN3CCC2CC3)c2ccccc21 (stereo not shown) [Example 6, N-(1-Azabicyclo[2,2,2]octo-3-yl)-2-(4-chlorophenyl)-1-methylindole-3-carboxamide hydrochloride]",Number of dead animals/number of animals used,mice; 50 mg/kg intraperitoneal,0/4
"COc1ccc(-c2c(C(=O)NC3CN4CCC3CC4)c3ccccc3n2C)cc1 (stereo not shown) [Example 4, N-(1-Azabicyclo[2,2,21octo-3-yl)-2-(4-methoxyphenyl)-1-methylindole-3-carboxamide hydrochloride]",Number of dead animals/number of animals used,mice; 30 mg/kg intraperitoneal,0/4
same,Number of dead animals/number of animals used,mice; 50 mg/kg intraperitoneal,0/4
"COc1ccccc1-c1c(C(=O)N[C@@H]2CN3CCC2CC3)c2ccccc2n1C [Example 11, (S)-(-)-N-(1-Azabicyclo[2,2,2]octo-3-yl)-2-(2-methoxyphenyl)-1-methylindole-3carboxamide hydrochloride]",ED50,[1],0.14 µg/kg
same,a/b (Number of animals which vomited/number of animals used),[2]; 0.01 mg/kg i.v.,4/4
same,Vomiting frequency,[2]; 0.01 mg/kg i.v.,6.8 ± 1.9 times
same,Latency to vomiting,[2]; 0.01 mg/kg i.v.,149.5 ± 5.4 min
same,Latency (to step-through),[3]; [5],214.1 ± 43.8 s
same,Latency (to step-through),[3]; [6],246.5 ± 35.7 s
same,Latency (to step-through),[3]; [7],246.7 ± 35.6 s
same,Latency (to step-through),[3]; [8],162.0 ± 46.1 s
same,IC50,muscarine M1 receptors,4600 nM
"Cn1c(-c2ccccc2Cl)c(C(=O)N[C@@H]2CN3CCC2CC3)c2ccccc21 [Example 12, (S)-(31)-N-(1-Azabicyclo[2,2,2]octo-3-yl)-2-(2-chlorophenyl)-1-methylindole-3-carboxamide hydrochloride]",ED50,[1],0.2 µg/kg
same,a/b (Number of animals which vomited/number of animals used),[2]; 0.001 mg/kg i.v.,4/4
same,Vomiting frequency,[2]; 0.001 mg/kg i.v.,7.0 ± 1.7 times
same,Latency to vomiting,[2]; 0.001 mg/kg i.v.,140.5 ± 13.6 min
same,a/b (Number of animals which vomited/number of animals used),[2]; 0.01 mg/kg i.v.,4/4
same,Vomiting frequency,[2]; 0.01 mg/kg i.v.,3.8 ± 0.5 times
same,Latency to vomiting,[2]; 0.01 mg/kg i.v.,173.8 ± 25.3 min
same,Latency (to step-through),"[3]; intraperitoneal, 0.1 μg/kg, control 103.8 ± 43.1",170.5 ± 43.3 s
same,Latency (to step-through),"[3]; intraperitoneal, 0.3 μg/kg, control 103.8 ± 43.1",183.0 ± 39.6 s
same,Latency (to step-through),"[3]; intraperitoneal, 1 μg/kg, control 103.8 ± 43.1",270.7 ± 29.3 s
same,Latency (to step-through),"[3]; intraperitoneal, 3 μg/kg, control 103.8 ± 43.1",256.3 ± 30.4 s
same,Latency (to step-through),"[3]; intraperitoneal, 10 μg/kg, control 103.8 ± 43.1",163.8 ± 45.6 s
same,Latency (to step-through),"[3]; intraperitoneal, 30 μg/kg, control 103.8 ± 43.1",127.8 ± 46.9 s
same,Latency (to step-through),[3]; [5],108.5 ± 42.0 s
same,Latency (to step-through),[3]; [6],246.3 ± 35.8 s
same,Latency (to step-through),[3]; [7],247.3 ± 35.2 s
same,Latency (to step-through),[3]; [8],105.5 ± 42.6 s
same,Latency (to step-through),"[3]; oral, 3 μg/kg, control 111.9 ± 41.4",139.2 ± 44.0 s
same,IC50,muscarine M1 receptors,1200 nM
"Cc1nccn1CC1CCc2c(c3ccccc3n2C)C1=O (stereo not shown) [GR-38032F, ondansetron]",anxiolytic and antipsychotic actions (in words),[4],exhibit excellent anxiolytic and antipsychotic actions
same,effect on emesis associated with anticancer drugs (in words),[4],markedly inhibit the emesis associated with the administration of anticancer drugs
"COc1ccc(-c2c(C(=O)N[C@@H]3CN4CCC3CC4)c3ccccc3n2C)cc1 [Example 2, (S)-(-)-N-(1-Azabicyclo[2,2,2]octo-3-yl)-2-(4-methoxyphenyl)-1-methylindole-3-carboxamide hydrochloride]",ED50,[1],0.3 µg/kg
same,a/b (Number of animals which vomited/number of animals used),[2]; 0.03 mg/kg i.v.,2/2
same,Vomiting frequency,[2]; 0.03 mg/kg i.v.,6.5 times
same,Latency to vomiting,[2]; 0.03 mg/kg i.v.,192.0 min
same,Number of dead animals/number of animals used,mice; 30 mg/kg intraperitoneal,0/4
same,Number of dead animals/number of animals used,mice; 50 mg/kg intraperitoneal,0/4
"COc1ccccc1-c1c(C(=O)NC2CN3CCC2CC3)c2ccccc2n1C (stereo not shown) [Example 8, N-(1-Azabicylo[2,2,2]octo-3-yl)-2-(2-methoxyphenyl)-1-methylindole-3-carboxamide hydrochloride]",ED50,[1],0.18 µg/kg
"Cn1c(-c2ccc(Cl)cc2)c(C(=O)N[C@@H]2CN3CCC2CC3)c2ccccc21 [Example 7, (S)-(-)-N-(1-Azabicyclo[2,2,2]octo-3-yl)-2-(4-chlorophenyl)-1-methylindole-3-carboxamide hydrochloride]",ED50,[1],0.28 µg/kg
same,a/b (Number of animals which vomited/number of animals used),[2]; 0.03 mg/kg i.v.,4/4
same,Vomiting frequency,[2]; 0.03 mg/kg i.v.,2.3 ± 0.6 times
same,Latency to vomiting,[2]; 0.03 mg/kg i.v.,206.8 ± 15.7 min
same,Number of dead animals/number of animals used,mice; 50 mg/kg intraperitoneal,0/4
"Cn1c(-c2ccccc2Cl)c(C(=O)NC2CN3CCC2CC3)c2ccccc21 (stereo not shown) [Example 10, N-(1-Azabicyclo[2,2,2]octo-3-yl)-2-(2-chlorophenyl)-1-methylindole-3-carboxamide hydrochloride]",ED50,[1],0.25 µg/kg
"CN1C2CCC1CC(OC(=O)c1c[nH]c3ccccc13)C2 (stereo not shown) [ICS-205-930, reference compound]",ED50,[1],1.79 µg/kg
same,a/b (Number of animals which vomited/number of animals used),[2]; 0.03 mg/kg i.v.,4/4
same,Vomiting frequency,[2]; 0.03 mg/kg i.v.,9.5 ± 1.3 times
same,Latency to vomiting,[2]; 0.03 mg/kg i.v.,139.8 ± 13.2 min
"Cn1c(-c2ccccc2)c(C(=O)N[C@@H]2CN3CCC2CC3)c2ccccc21 [Example 3, (S)-(-)-N(1-Azabicyclo[2,2,2]octo-3-yl)-2-phenyl-1-methylindole-3-carboxamide hydrochloride]",a/b (Number of animals which vomited/number of animals used),[2]; 0.03 mg/kg i.v.,2/2
same,Vomiting frequency,[2]; 0.03 mg/kg i.v.,1.0 times
same,Latency to vomiting,[2]; 0.03 mg/kg i.v.,215.0 min
same,Number of dead animals/number of animals used,mice; 30 mg/kg intraperitoneal,0/4
same,Number of dead animals/number of animals used,mice; 50 mg/kg intraperitoneal,0/4
